Changes are numbered by the printed parent chain. Read-outs that look alike come from different tables or passages of the source. Blank lines part the entries; values can stand above or below the molecule they belong to.
Columns and labels:
[1] = molecular target: T1, recombinant MTHFD2 protein (human, wild type) (Homo sapiens, UniProt P13995); experiment: NAD-dependent methylenetetrahydrofolate dehydrogenase/cyclohydrolase activity assay, 384 well, no reducing agents; assay type: biochemical; conditions: for inhibition of MTHFD2 enzyme in high throughput screen: screen of about 5,100 small molecules, biological duplicate, no reducing agents
T1 construct: 12 amino acids were removed from the unstructured C-terminus of the protein, and a 6-histidine tag added to facilitate purification; 6-histidine tag (C); made in house; host or cells: E. coli One Shot BL21 Star (DE3), pET-30a(+)
T1 sequence (P13995 with tags, fused parts or gaps): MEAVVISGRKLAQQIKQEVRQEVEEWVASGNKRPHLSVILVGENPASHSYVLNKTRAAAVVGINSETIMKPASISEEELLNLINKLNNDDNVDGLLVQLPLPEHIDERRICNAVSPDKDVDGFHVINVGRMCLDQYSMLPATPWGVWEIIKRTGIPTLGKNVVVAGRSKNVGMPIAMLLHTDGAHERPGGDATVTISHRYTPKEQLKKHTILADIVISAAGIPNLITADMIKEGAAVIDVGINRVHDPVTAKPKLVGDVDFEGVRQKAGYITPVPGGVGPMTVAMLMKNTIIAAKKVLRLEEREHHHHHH
Procedure: (§1) The NAD-dependent methylenetetrahydrofolate dehydrogenase/cyclohydrolase activity assay employed in this microtiter well based screen is based on previously published enzymatic assays, with modifications as listed below. The assay was initially reported by Scrimgeour and Huennekens, Biochem. Biophys. Res. Commun. 1960, 2:230-233 and subsequently by Mejia and MacKenzie, The Journal of biological chemistry. 1985; 260:14616-14620). The assay was performed as described with slight modifications (reported assay concentrations in the Mejia et al. assay are provided in brackets below). The modified assay utilized 50 ng of recombinant MTHFD2 protein produced as described in Example 11 per well in 384 well format. In addition, the present assay utilized 30 […], at pH 7.5 (7.3), with 150 uM formaldehyde (2.5 mM), 150 uM tetrahydrofolate (250 uM) and 6 mM MgCl (5 mM). No 2-mercaptoethanol or reducing agents were used in the present assay, which is crucial for detection of cysteine modifying compounds as potential enzyme inhibitors. The assay employed for high-throughput screening for chemical inhibitors used the final endpoint measure of formation of 5,10-methenyltetrahydrofolate by spectrophotometric absorbance at 340 nm.
The assay described in Example 12 was used to screen a library of about 5,100 small molecule agents in the Prestwick chemical library, Known Bioactives Library and Library of Pharmacologically Active Compounds, in biological duplicate. […] Several of the high scoring inhibitors are known cysteine modifiers that could in principle inhibit enzyme activity by modification of cysteine residues.
Three mutant MTHFD2 constructs were generated with Agilent QuikChange Lightening, with cysteine to serine mutations at C145, C166 or both C145/C166. These mutants were retested with three of the compounds identified in the secondary screen (6-hydroxy-DL-DOPA, Celastrol, and Ebselen). […] Given the identification of these cysteine residues, additional structure/medicinal chemistry may be employed to specifically design small molecules that take advantage of these cysteine residues and inhibit MTHFD2 with greater selectivity.

MTHFD2 C145S mutant = molecular target: T2, MTHFD2 C145S mutant (Homo sapiens, UniProt P13995, C145S); experiment: Same activity assay on MTHFD2 C145 cysteine to serine mutant; assay type: biochemical
T2 construct: 12 amino acids were removed from the unstructured C-terminus of the protein, and a 6-histidine tag added to facilitate purification; 6-histidine tag (C); made in house
T2 sequence (P13995 with tags, fused parts or gaps C145S): T1 sequence (P13995 with tags, fused parts or gaps) with C111S
Procedure: as §1, with “nm. […]” for “nm.”

MTHFD2 C166S mutant = molecular target: T3, MTHFD2 C166S mutant (Homo sapiens, UniProt P13995, C166S); experiment: Same activity assay on MTHFD2 C166 cysteine to serine mutant; assay type: biochemical
T3 construct: 12 amino acids were removed from the unstructured C-terminus of the protein, and a 6-histidine tag added to facilitate purification; 6-histidine tag (C); made in house
T3 sequence (P13995 with tags, fused parts or gaps C166S): T1 sequence (P13995 with tags, fused parts or gaps) with C132S
Procedure: as §1, with “nm. […]” for “nm.”

[2] = molecular target: T4, MTHFD2 C145S/C166S mutant (Homo sapiens, UniProt P13995, C145S/C166S); experiment: Same activity assay on MTHFD2 C145/C166 double mutant; assay type: biochemical
T4 construct: 12 amino acids were removed from the unstructured C-terminus of the protein, and a 6-histidine tag added to facilitate purification; 6-histidine tag (C); made in house
T4 sequence (P13995 with tags, fused parts or gaps C145S/C166S): T1 sequence (P13995 with tags, fused parts or gaps) with C111S, C132S
Procedure: as §1, with “nm. […]” for “nm.”

LOX IMVI cells = experiment: Rescue of SHMT2-silenced LOX IMVI cells grown in the absence of glycine; assay type: cell-based, human; conditions: supplement 140 μM
Procedure: (§2) For lentiviral infection, 100,000 cells were seeded in a 6-well dish in 2 mL medium containing 8 μg/ml Polybrene and 100 μl viral supernatant added. Plates were centrifuged at 800×g for 30 minutes at 37° C., and the medium replaced. Twenty-four hours later, cells were selected for infection by the addition of 2 μg/ml puromycin. […] Cells were passaged for >10 cell divisions to ensure stable expression of the shRNA construct. For assessment of SHMT2 knockdown, mRNA was isolated from cells using RNeasy kit (Qiagen), and qRT-PCR was performed for SHMT2 and HPRT1 using the Taqman assay (Applied Biosystems assay ID Hs00193658_m1* and Hs01003267_m1*, respectively), according to manufacturer's instructions. For experiments using A498 and LOX IMVI, cells were infected with either sh1-4 or shCtrl lentivirus and stable expressing cells selected as above. For experiments utilizing NCI-H226, HS-578T, TK10, EKVX, OVCAR-8, U251, A549, HT29, NCI-460 and HCT-116, cells were infected with either sh4 or shCtrl lentivirus and stable expressing cells selected as above. […] For all experiments, cells were counted and cell counts expressed as fold change over time. […] Cells were counted at regular time intervals as described above. All experiments were performed using at least 10 independent cell cultures.

[3] = system: 10 additional primary cancer cell lines from the NCI-60 panel; conditions: FIG. 1G
Procedure: as §2

NCI-60 cancer cell lines = experiment: Association between glycine consumption and compound sensitivity (GI50) across the 60 cell lines; assay type: cell-based, human; conditions: NCI public data, FIG. 3
Text: Compound sensitivity data for glutathione biosynthesis and de novo purine biosynthesis inhibitors was obtained from the NCI data repository (October 2009 release). Compound sensitivity was quantified using the GI50 measure (Shoemaker, Nat Rev Cancer. 2006; 6:813-823), defined as the compound concentration inhibiting cell growth by 50%. For those compounds in which multiple experiments with different concentration ranges were available, the experiment with the least degree of saturation was used.
Given the observation that glycine consumption is correlated to rapid cancer cell proliferation (see Examples 1-5, above), the present inventors sought to determine whether glycine consumption predicts sensitivity to particular chemotherapeutic agents. The association between glycine update and sensitivity to 3851 annotated small molecules (data provided to the public by NCI) was examined bioinformatically across the 60 cell lines.

MTHFD2 [4] = molecular target: T5, MTHFD2 (Homo sapiens, UniProt P13995); experiment: Enzyme kinetics of recombinant MTHFD2 in the modified 384 well assay; assay type: biochemical; conditions: recombinant MTHFD2, 384 well plate format; read-out: Km, Measured
T5 construct: 12 amino acids were removed from the unstructured C-terminus of the protein, and a 6-histidine tag added to facilitate purification; 6-histidine tag (C); made in house; host or cells: E. coli One Shot BL21 Star (DE3), pET-30a(+)
T5 sequence (P13995 with tags, fused parts or gaps): T1 sequence (P13995 with tags, fused parts or gaps)
Procedure: as §1

MTHFD2 [5] = molecular target: T5, MTHFD2; conditions: published values (Yang and MacKenzie 1993); cited from earlier work

- inhibition of MTHFD2 enzyme in high throughput screen [1]: inhibit the enzyme
Structure (SMILES): O=C1Nc2ccc(I)cc2/C1=C/c1cc(Br)c(O)c(Br)c1 [GW5074]

Structure (SMILES): O=C1C=CC(=O)C=C1 [para-benzoquinone]
- inhibition of MTHFD2 enzyme in high throughput screen [1]: inhibit the enzyme

Structure (SMILES): NC(Cc1cc(O)c(O)cc1O)C(=O)O (stereo not drawn) [6-hydroxy-DL DOPA]
- inhibition of wild type MTHFD2 with addition of the reducing agent DTT ([1]; plus DTT): not antagonized
- inhibition of wild type MTHFD2 ([1]; retest with mutants, FIGS. 9A-C): inhibited
- inhibition of MTHFD2 enzyme in high throughput screen [1]: inhibit the enzyme
- inhibition of C145 mutant MTHFD2 (MTHFD2 C145S mutant): inhibited
- inhibition of C166 mutant MTHFD2 (MTHFD2 C166S mutant): inhibited
- inhibition of C145/C166 double mutant MTHFD2 [2]: inhibited

Structure (SMILES): NCC(=O)O [glycine]
- rescue of proliferation of SHMT2-silenced LOX IMVI cells (LOX IMVI cells): rescued
- rescue by addition of extracellular glycine in rapidly proliferating SHMT2-silenced cancer cells [3]: rescued

Structure (SMILES): O=c1[nH]cc(F)c(=O)[nH]1 [5-fluorouracil]
- sensitivity of glycine consuming cells to the agent (correlation of glycine consumption with sensitivity) (NCI-60 cancer cell lines): not more sensitive

Structure (SMILES): C=CC1=C(C)c2cc3[nH]c(cc4nc(cc5[nH]c(cc1n2)c(C)c5CCC(=O)O)C(CCC(=O)O)=C4C)c(C)c3C=C [protoporphyrin IX disodium]
- inhibition of MTHFD2 enzyme in high throughput screen [1]: inhibit the enzyme

- Km (MTHFD2 [4]): 51.5 µM
Structure (SMILES): NC(=O)c1ccc[n+]([C@@H]2O[C@H](COP(=O)([O-])OP(=O)(O)OC[C@H]3O[C@@H](n4cnc5c(N)ncnc54)[C@H](O)[C@@H]3O)[C@@H](O)[C@H]2O)c1 [NAD+]
- Km (MTHFD2 [5]): 56.4 µM

- Km (MTHFD2 [4]): 4.1 µM
Structure (SMILES): Nc1nc2c(c(=O)[nH]1)N1CN(c3ccc(C(=O)N[C@@H](CCC(=O)O)C(=O)O)cc3)CC1CN2 (some centres unmarked) [5,10 CH2—THF]
- Km (MTHFD2 [5]): 6.7 µM

Structure (SMILES): O=CO [formate]
- rescue of proliferation of SHMT2-silenced LOX IMVI cells (LOX IMVI cells): failed to rescue

Structure (SMILES): NC(=O)CI [iodoacetamide]
- inhibition of MTHFD2 enzyme in high throughput screen [1]: inhibit the enzyme

Structure (SMILES): CN(Cc1cnc2nc(N)nc(N)c2n1)c1ccc(C(=O)N[C@@H](CCC(=O)O)C(=O)O)cc1 [methotrexate, Glutamic acid, N-[p-[[(2,4-diamino-6-pteridinyl)methyl]methylamino]benzoyl]-, L-(+)-(8CI)]
- sensitivity of glycine consuming cells to the agent (correlation of glycine consumption with sensitivity) (NCI-60 cancer cell lines): uniquely sensitive

- inhibition of MTHFD2 enzyme in high throughput screen [1]: inhibit the enzyme
Structure (SMILES): Clc1ccc(C(c2ccc(Cl)cc2)n2cc[n+](CC(OCc3ccc(Cl)cc3Cl)c3ccc(Cl)cc3Cl)c2)cc1 (centres unmarked) [calmidazolium chloride]

— patent publication US20160032401A1, “Glycine, Mitochondrial One-Carbon Metabolism, and Cancer” (THE GENERAL HOSPITAL CORPORATION, priority 2013, published 2016)
